This passage reports inhibition and EC50 results from ChEMBL document CHEMBL1777706, “Discovery of selective and orally available spiro-3-piperidyl ATP-competitive MK2 inhibitors” (Bioorg Med Chem Lett, 2011).

Assay [1] addresses Serine/threonine-protein kinase Chk2 (Homo sapiens) (UniProt O96017). As to the kind of experiment: Inhibition of CHK2 at 1 uM.
Assay [2] concerns the target MAP kinase-activated protein kinase 2 (Homo sapiens, UniProt P49137). As to the kind of experiment: Inhibition of MK2 pretreated for 30 mins before fluorescein labeled substrate peptide addition measured after 2 hrs by IMAP assay.
Another assay deals with THP-1. As to the kind of experiment: Antiinflammatory activity in human THP1 cells assessed as inhibition of LPS-induced TNFalpha production pretreated 30 mins before LPS challenge measured after 4 hrs. Format: functional, cell-based.
The target in assay [3] is Mitogen-activated protein kinase 3 (Homo sapiens) (UniProt P27361). The experiment in a line: Inhibition of ERK1 at 1 uM.
Chain of Mitogen-activated protein kinase 3 (Homo sapiens) (P27361 whole entry): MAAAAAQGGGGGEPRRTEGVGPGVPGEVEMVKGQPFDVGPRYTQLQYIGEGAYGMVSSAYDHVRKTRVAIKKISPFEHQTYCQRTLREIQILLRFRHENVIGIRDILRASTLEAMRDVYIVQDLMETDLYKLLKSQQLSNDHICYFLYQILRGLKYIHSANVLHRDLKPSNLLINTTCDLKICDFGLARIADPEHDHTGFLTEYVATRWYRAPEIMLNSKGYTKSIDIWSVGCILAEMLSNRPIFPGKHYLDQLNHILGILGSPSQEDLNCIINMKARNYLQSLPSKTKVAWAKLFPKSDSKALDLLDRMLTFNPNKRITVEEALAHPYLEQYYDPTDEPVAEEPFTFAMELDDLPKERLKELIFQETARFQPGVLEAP
The target in assay [4] is Serine/threonine-protein kinase pim-3 (Homo sapiens) (UniProt Q86V86). As to the kind of experiment: Inhibition of PIM3 at 1 uM.
Assay [5] concerns the target Mitogen-activated protein kinase 1 (Homo sapiens) (UniProt P28482). The experiment in a line: Inhibition of ERK2 at 1 uM.
A short description of assay [6]: Inhibition of p38.
Assay [7] deals with Serine/threonine-protein kinase pim-1 (Homo sapiens) (UniProt P11309). As to the kind of experiment: Inhibition of PIM1 at 1 uM.
Chain of Serine/threonine-protein kinase pim-1 (Homo sapiens) (P11309 whole entry, looked up): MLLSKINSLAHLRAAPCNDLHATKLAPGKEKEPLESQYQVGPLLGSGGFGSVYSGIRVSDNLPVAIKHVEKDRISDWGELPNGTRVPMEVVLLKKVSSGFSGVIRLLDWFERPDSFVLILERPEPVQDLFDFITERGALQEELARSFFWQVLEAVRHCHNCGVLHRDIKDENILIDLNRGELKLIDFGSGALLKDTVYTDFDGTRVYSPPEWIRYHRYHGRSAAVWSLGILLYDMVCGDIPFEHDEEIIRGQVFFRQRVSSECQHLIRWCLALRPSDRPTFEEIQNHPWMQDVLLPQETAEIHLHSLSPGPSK
Assay [8] concerns the target T1, Serine/threonine-protein kinase 17A (Homo sapiens) (UniProt Q9UEE5).
T1 sequence (whole entry): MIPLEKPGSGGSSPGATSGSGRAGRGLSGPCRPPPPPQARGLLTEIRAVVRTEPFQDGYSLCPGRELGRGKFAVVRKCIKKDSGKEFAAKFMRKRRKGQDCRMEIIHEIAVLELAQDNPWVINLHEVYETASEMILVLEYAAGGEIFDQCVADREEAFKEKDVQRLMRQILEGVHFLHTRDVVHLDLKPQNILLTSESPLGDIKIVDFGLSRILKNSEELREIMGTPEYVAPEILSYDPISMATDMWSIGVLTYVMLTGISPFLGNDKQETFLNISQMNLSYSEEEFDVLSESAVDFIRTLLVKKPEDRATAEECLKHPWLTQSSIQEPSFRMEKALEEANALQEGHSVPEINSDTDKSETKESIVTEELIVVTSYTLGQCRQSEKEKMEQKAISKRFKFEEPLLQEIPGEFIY
As to the kind of experiment: Inhibition of DRAK1 at 1 uM.

The structures appear in SMILES notation. Active and inactive are the calls of the source. No cut-off for these calls is given here.

Chain of Mitogen-activated protein kinase 1 (Homo sapiens) (P28482 whole entry, looked up): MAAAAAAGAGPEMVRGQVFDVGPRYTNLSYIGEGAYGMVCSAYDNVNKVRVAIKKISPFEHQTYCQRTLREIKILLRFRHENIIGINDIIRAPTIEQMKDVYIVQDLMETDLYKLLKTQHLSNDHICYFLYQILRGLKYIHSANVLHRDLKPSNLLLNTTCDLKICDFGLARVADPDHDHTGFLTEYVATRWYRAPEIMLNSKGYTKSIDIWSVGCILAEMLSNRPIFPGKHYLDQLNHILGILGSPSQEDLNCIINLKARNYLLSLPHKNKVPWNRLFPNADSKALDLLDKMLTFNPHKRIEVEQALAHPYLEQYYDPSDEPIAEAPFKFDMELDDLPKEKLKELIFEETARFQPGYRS
Chain of Serine/threonine-protein kinase Chk2 (Homo sapiens) (O96017 whole entry): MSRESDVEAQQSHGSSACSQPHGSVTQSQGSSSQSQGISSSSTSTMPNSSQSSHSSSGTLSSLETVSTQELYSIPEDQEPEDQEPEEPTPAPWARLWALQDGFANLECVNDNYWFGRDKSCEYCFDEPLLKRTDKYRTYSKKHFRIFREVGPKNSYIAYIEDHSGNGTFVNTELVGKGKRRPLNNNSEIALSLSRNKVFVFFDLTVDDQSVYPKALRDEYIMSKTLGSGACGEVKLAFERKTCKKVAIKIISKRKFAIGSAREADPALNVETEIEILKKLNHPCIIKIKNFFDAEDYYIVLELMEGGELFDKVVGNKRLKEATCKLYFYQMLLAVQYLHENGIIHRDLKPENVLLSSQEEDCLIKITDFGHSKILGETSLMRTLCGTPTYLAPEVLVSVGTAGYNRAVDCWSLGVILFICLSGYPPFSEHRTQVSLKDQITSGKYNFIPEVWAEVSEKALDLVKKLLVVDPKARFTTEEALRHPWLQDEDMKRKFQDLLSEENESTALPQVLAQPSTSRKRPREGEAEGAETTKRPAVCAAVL
Chain of MAP kinase-activated protein kinase 2 (P49137 whole entry): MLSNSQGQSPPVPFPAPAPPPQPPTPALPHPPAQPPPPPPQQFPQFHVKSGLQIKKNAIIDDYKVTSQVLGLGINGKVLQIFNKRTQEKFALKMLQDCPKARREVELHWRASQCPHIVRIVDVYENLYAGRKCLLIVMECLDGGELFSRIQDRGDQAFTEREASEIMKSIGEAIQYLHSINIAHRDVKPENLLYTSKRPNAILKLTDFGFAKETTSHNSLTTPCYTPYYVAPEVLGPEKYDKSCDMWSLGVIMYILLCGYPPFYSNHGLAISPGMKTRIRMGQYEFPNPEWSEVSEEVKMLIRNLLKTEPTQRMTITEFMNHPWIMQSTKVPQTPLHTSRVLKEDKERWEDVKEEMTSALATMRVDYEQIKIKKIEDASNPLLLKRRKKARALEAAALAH

What is called inhibition is the share of the control response that was lost under treatment. Usually EC50 stands for the midpoint of the concentration-response curve. Take `O=C1NCC2(CCNCC2)c2[nH]c(-c3ccnc(-c4cccc(F)c4)n3)cc21`: the inhibition in [1], in assay [3], in assay [4], in [5], in [7] and in [8] was over 80% in each case. The EC50 worked out at 8.3 nM in assay [2] and 1400 nM with THP-1. Further, the inhibition result in assay [6] was “inactive”.
Regarding `CC(=O)c1ccc(-c2nccc(-c3cc4c([nH]3)C3(CCNCC3)CNC4=O)n2)cc1`, the inhibition in assay [1], in [3], in [4], in assay [5], in [7] and in assay [8] was over 80% throughout. Further, the EC50 turned out to be 9.8 nM in assay [2] and 5000 nM in the assay on THP-1. In addition, the inhibition result in [6] was “inactive”.
Consider `O=C1NCC2(CCNCC2)c2[nH]c(-c3ccnc(-c4cccc(C(F)(F)F)c4)n3)cc21`, for which the inhibition in assay [1], in assay [3], in assay [4], in [5], in [7] and in assay [8] was over 80% in each case. For the same compound, the values for the half-maximal effective concentration (EC50) (in assay [2]; with THP-1) were 15 nM and 4200 nM, respectively. In addition, in assay [6], the inhibition entry was “inactive”.
As for `O=C1NCC2(CCNCC2)c2[nH]c(-c3ccnc(-c4cccnc4)n3)cc21`, the inhibition in assay [1], in assay [3], in assay [4], in assay [5], in assay [7] and in assay [8] was over 80% each time. In addition, the EC50 in assay [2] was 1.1 nM; in the assay on THP-1, over 10000 nM. In assay [6], the inhibition entry was “inactive”.
Regarding `Nc1ccc(-c2nccc(-c3cc4c([nH]3)C3(CCNCC3)CNC4=O)n2)cn1`, the inhibition in assay [1], in assay [3], in assay [4], in assay [5], in [7] and in assay [8] was over 80% in each case. The values for the EC50 (in assay [2]; in the assay on THP-1) were 15 nM and over 10000 nM, respectively. In [6], the inhibition result is “inactive”.
In the case of `O=C1NCC2(CCNCC2)c2[nH]c(-c3ccnc(-c4cnc5ccccc5c4)n3)cc21`, the inhibition in [1], in assay [3], in [4], in [5], in [7] and in assay [8] was over 80% in each case. Moreover, in the assay with THP-1, the EC50 is 4800 nM. In assay [6], the inhibition result is “inactive”.
Regarding `O=C1NCC2(CCNCC2)c2[nH]c(-c3ccnc(-c4ccc(C(F)(F)F)cc4)n3)cc21`, the inhibition in [1], in assay [3], in [4], in assay [5], in [7] and in assay [8] was over 80% each time. Moreover, the values for the EC50 (in assay [2]; in the assay with THP-1) were 6.9 nM and 6300 nM, respectively. For the same compound, the inhibition result in [6] was “inactive”.
With `Nc1ncc(-c2nccc(-c3cc4c([nH]3)C3(CCNCC3)CNC4=O)n2)cn1`, the inhibition in [1], in assay [3], in assay [4], in assay [5], in [7] and in assay [8] was over 80% throughout. Besides, the EC50 in [2] is 5 nM; with THP-1 it was over 10000 nM. In addition, in assay [6], the inhibition entry is “inactive”.
In the case of `O=C1NCC2(CCNCC2)c2[nH]c(-c3ccnc(-c4cc(Cl)cc(Cl)c4)n3)cc21`, the inhibition in assay [1], in [3], in [4], in [5], in assay [7] and in [8] was over 80% in each case. For the same compound, the EC50 came to 4.5 nM in assay [2] and 6300 nM with THP-1. Also, the inhibition entry in assay [6] is “inactive”.
`O=C1NCC2(CCNCC2)c2[nH]c(-c3ccnc(-c4cnc(NC5CCCC5)nc4)n3)cc21`: the inhibition in [1], in assay [3], in assay [4], in [5], in assay [7] and in assay [8] was over 80% in each case. The EC50 in [2] turned out to be 4.9 nM; in the assay on THP-1, 2600 nM. Also, the inhibition result in assay [6] was “inactive”.
In the case of `CC(=O)c1cccc(-c2nccc(-c3cc4c([nH]3)C3(CCNCC3)CNC4=O)n2)c1`, the inhibition in assay [1], in assay [3], in assay [4], in assay [5], in assay [7] and in assay [8] was over 80% each time. Further, the figures for the concentration giving a half-maximal response (EC50) (in [2]; with THP-1) were 11 nM and 6200 nM, respectively. In addition, in [6], the inhibition entry was “inactive”.
Regarding `CC(C)c1cccc(-c2nccc(-c3cc4c([nH]3)C3(CCNCC3)CNC4=O)n2)c1`, the inhibition in [1], in assay [3], in assay [4], in [5], in assay [7] and in [8] was over 80% each time. Further, the EC50 is 112 nM in assay [2] and over 10000 nM in the assay on THP-1. Moreover, the inhibition entry in assay [6] is “inactive”.
With `O=C1NCC2(CCOCC2)c2[nH]c(-c3ccnc(-c4ccc5c(c4)OCO5)n3)cc21`, the inhibition in assay [1], in assay [3], in [4], in assay [5], in assay [7] and in assay [8] was over 80% in each case. Moreover, the concentration giving a half-maximal response (EC50) is 724 nM in assay [2] and over 10000 nM with THP-1. For the same compound, the inhibition entry in [6] is “inactive”.
Turning to `O=C1NCC2(CCNCC2)c2[nH]c(-c3ccnc(-c4ccccc4F)n3)cc21`, the inhibition in assay [1], in [3], in [4], in assay [5], in assay [7] and in assay [8] was over 80% throughout. Moreover, the figures for the half-maximal effective concentration (EC50) (in assay [2]; in the assay on THP-1) were 29 nM and 4200 nM, respectively. Further, the inhibition result in assay [6] was “inactive”.
Turning to `O=C1NCC2(CCNCC2)c2[nH]c(-c3ccnc(-c4ccc5c(c4)OCCCO5)n3)cc21`, the inhibition in assay [1], in assay [3], in [4], in assay [5], in assay [7] and in assay [8] was over 80% each time. Also, the EC50 stood at 10 nM in [2] and 4900 nM with THP-1. Further, in [6], the inhibition entry was “inactive”.
As for `O=C1NCCc2[nH]c(-c3ccnc(-c4ccccc4F)c3)cc21`, the inhibition in assay [1], in [4], in assay [7] and in assay [8] was over 80% throughout. Besides, the EC50 with THP-1 stood at 9100 nM. Besides, the inhibition result in assay [6] is “inactive”.
